{"source": "patent US8642801B2", "about": "(BHI Limited Partnership, priority 2003, dated 2014)", "key": {"Aβ1-40": {"target": "T1, Aβ1-40 (Homo sapiens, UniProt P05067)", "T1 construct": "most is normally secreted as a 40 (“Aβ1-40”) or 42 (“Aβ1-42”) amino acid peptide", "T1 sequence (P05067 672-711 limits assumed)": "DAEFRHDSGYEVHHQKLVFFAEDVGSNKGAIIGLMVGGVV", "experiment": "MS (electrospray mass spectrometry) binding assay for Aβ40", "description": "(§1) The ability of a therapeutic compound of the invention to inhibit an interaction between an amyloidogenic protein and a glycoprotein or proteoglycan constituent of a basement membrane can be assessed by an in vitro binding assay, such as that described in U.S. Pat. No. 5,164,295, the contents of which are hereby incorporated by reference. Alternatively, the ability of a compound to bind to an amyloidogenic protein or to inhibit the binding of a basement membrane constituent (e.g., HSPG) to an amyloidogenic protein (e.g., Aβ) can be measured using a mass spectrometry assay where soluble protein, e.g., Aβ, IAPP, β2M is incubated with the compound. A compound which binds to, e.g., Aβ, will induce a change in the mass spectrum of the protein. Exemplary protocols for a mass spectrometry assay employing Aβ and IAPP can be found in the Examples, the results of which are provided in Table 3. The protocol can readily be modified to adjust the sensitivity of the data, e.g., by adjusting the amount of protein and/or compound employed. Thus, e.g., binding might be detected for test compounds noted as not having detectable binding employing less sensitive test protocols.\n(§2) The test compounds were synthesized and screened by mass spectrometry (“MS”) assays, except for selected compounds which were purchased from a commercial source. The MS assay gives data on the ability of compounds to bind to proteins, in this example, to β-amyloid and IAPP.\n(§3) The pH value of each sample was adjusted to 7.4 (±0.2) by addition of 0.1% aqueous sodium hydroxide. The solutions were then analyzed by electrospray ionization mass spectrometry using a Waters ZQ 4000 mass spectrometer. Samples were introduced by direct infusion at a flow-rate of 25 μL/min within 2 hr. after sample preparation. The source temperature was kept at 70° C. and the cone voltage was 20 V for all the analysis. Data were processed using Masslynx 3.5 software. The MS assay gives data on the ability of compounds to bind to soluble Aβ, whereas the ThT, EM and CD assays give data on inhibition of fibrillogenesis. In Table 3, a blank box means that a value was not determined for that compound in that assay."}, "IAPP [1]": {"target": "T2, IAPP (Homo sapiens, UniProt P10997)", "T2 construct": "which is a 37 amino acid peptide, derived from a larger precursor peptide, called pro-IAPP", "T2 sequence (P10997 34-70 limits assumed)": "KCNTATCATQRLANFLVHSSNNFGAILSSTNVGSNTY", "experiment": "MS (electrospray mass spectrometry) binding assay for IAPP"}, "IAPP [2]": {"target": "T2, IAPP", "experiment": "MS (electrospray mass spectrometry) binding assay for IAPP", "conditions": "Table 3C; 20 μM Aβ peptide, 100 μM compound (so in the source)", "description": "as §1, §2\nas §3, with “In the MS assay for Aβ40, samples were prepared as aqueous solutions (adding 20% ethanol if necessary to solubilize in water), 200 μM of a test compound and 20 μM of solubilized Aβ40, or 400 μM of a test compound and 40 μM of solubilized Aβ40. The pH” for “The pH”\nThe key below describes the codes used in Table 3A to quantify the binding based on the intensity of the absorption."}, "[3]": {"conditions": "Table 3B, 30 μM Aβ peptide, 150 μM compound"}, "[4]": {"conditions": "Table 3B, 30 μM Aβ peptide, 150 μM compound (so in the source)"}, "[5]": {"conditions": "Table 3C, 20 μM Aβ peptide, 100 μM compound"}, "[6]": {"conditions": "Table 3D, 40 μM Aβ peptide, 400 μM compound"}, "[7]": {"conditions": "Table 3D, 40 μM Aβ peptide, 400 μM compound (so in the source)"}}, "note": "Counter-ions that a name gives are not always drawn.", "data": [{"smiles": "CC(CCN)S(=O)(=O)O", "note": "(centres unmarked) [JR, 4-amino-2-butanesulfonic acid]", "values": [{"measurement": "MS binding Aβ1-40", "setting": "Aβ1-40; [3]", "value": "++ (40-59% binding=(++))"}, {"measurement": "MS binding IAPP", "setting": "IAPP [1]; [4]", "value": "+++ (60-100% binding=(+++))"}]}, {"smiles": "COc1ccc(OC)c(CNCCCS(=O)(=O)O)c1", "note": "[JB]", "values": [{"measurement": "MS binding Aβ1-40", "setting": "Aβ1-40; [5]", "value": "+ (20-39% binding=(+))"}, {"measurement": "MS binding IAPP", "setting": "IAPP [2]", "value": "+ (20-39% binding=(+))"}]}, {"smiles": "O=S(=O)(O)CCCN1CCC=C(c2ccccc2)C1", "note": "[IG]", "values": [{"measurement": "MS binding Aβ1-40", "setting": "Aβ1-40; [6]", "value": "+++ (75-100% binding=(+++))"}, {"measurement": "MS binding IAPP", "setting": "IAPP [1]; [7]", "value": "++ (40-74% binding=(++))"}]}, {"smiles": "CC(CCNC1C2CC3CC(C2)CC1C3)S(=O)(=O)O", "note": "(centres unmarked) [JI, 4-(2-adamantyl)amino-2-butanesulfonic acid]", "values": [{"measurement": "MS binding Aβ1-40", "setting": "Aβ1-40; [3]", "value": "+++ (60-100% binding=(+++))"}, {"measurement": "MS binding IAPP", "setting": "IAPP [1]; [4]", "value": "+++ (60-100% binding=(+++))"}]}, {"smiles": "C[C@H](NCCCS(=O)(=O)O)c1ccccc1", "note": "[JA]", "values": [{"measurement": "MS binding Aβ1-40", "setting": "Aβ1-40; [5]", "value": "+ (20-39% binding=(+))"}, {"measurement": "MS binding IAPP", "setting": "IAPP [2]", "value": "++ (40-74% binding=(++))"}]}, {"smiles": "CC(CCN(C)C)S(=O)(=O)[O-].[Na+]", "note": "(centres unmarked) [JO, 4-(dimethylamino)-2-butanesulfonic acid]", "values": [{"measurement": "MS binding Aβ1-40", "setting": "Aβ1-40; [5]", "value": "+ (20-39% binding=(+))"}, {"measurement": "MS binding IAPP", "setting": "IAPP [2]", "value": "++ (40-74% binding=(++))"}]}, {"smiles": "O=S(=O)(O)CCCNCc1ccccc1OC(F)(F)F", "note": "[IX]", "values": [{"measurement": "MS binding Aβ1-40", "setting": "Aβ1-40; [5]", "value": "++ (40-74% binding=(++))"}, {"measurement": "MS binding IAPP", "setting": "IAPP [2]", "value": "+++ (75-100% binding=(+++))"}]}, {"smiles": "O=S(=O)(O)CCCNc1ccc(F)cc1", "note": "[HT]", "values": [{"measurement": "MS binding Aβ1-40", "setting": "Aβ1-40; [6]", "value": "++ (40-74% binding=(++))"}, {"measurement": "MS binding IAPP", "setting": "IAPP [1]; [7]", "value": "+ (20-39% binding=(+))"}]}, {"smiles": "CC(CCNC1CCCc2ccccc21)S(=O)(=O)O", "note": "(centres unmarked) [JF, 4-(1,2,3,4-tetrahydro-1-naphthylamino)-2-butanesulfonic acid]", "values": [{"measurement": "MS binding Aβ1-40", "setting": "Aβ1-40; [5]", "value": "+ (20-39% binding=(+))"}, {"measurement": "MS binding IAPP", "setting": "IAPP [2]", "value": "++ (40-74% binding=(++))"}]}, {"smiles": "O=S(=O)(O)CC(O)CNC1CCCc2ccccc21", "note": "(centres unmarked) [JZ, 2-hydroxy-3-(1,2,3,4-tetrahydronaphthalen-1-ylamino)propane-1-sulfonic acid]", "values": [{"measurement": "MS binding IAPP", "setting": "IAPP [2]", "value": "+++ (75-100% binding=(+++))"}]}, {"smiles": "Nc1ccc(NCCCS(=O)(=O)O)cc1", "note": "[HM]", "values": [{"measurement": "MS binding Aβ1-40", "setting": "Aβ1-40; [6]", "value": "+ (20-39% binding=(+))"}, {"measurement": "MS binding IAPP", "setting": "IAPP [1]; [7]", "value": "− (<20%=(−))"}]}, {"smiles": "CC(CCNC1CC2CCC1C2)S(=O)(=O)O", "note": "(centres unmarked) [JJ, 4-(bicyclo[2.2.1]hept-2-ylamino)-2-butanesulfonic acid]", "values": [{"measurement": "MS binding Aβ1-40", "setting": "Aβ1-40; [5]", "value": "++ (40-74% binding=(++))"}, {"measurement": "MS binding IAPP", "setting": "IAPP [2]", "value": "+++ (75-100% binding=(+++))"}]}, {"smiles": "O=S(=O)(O)CCCNC1CN2CCC1CC2", "note": "(centres unmarked) [HQ]", "values": [{"measurement": "MS binding Aβ1-40", "setting": "Aβ1-40; [6]", "value": "+ (20-39% binding=(+))"}]}, {"smiles": "COc1ccc(NCCCS(=O)(=O)O)cc1", "note": "[HL]", "values": [{"measurement": "MS binding Aβ1-40", "setting": "Aβ1-40; [6]", "value": "++ (40-74% binding=(++))"}, {"measurement": "MS binding IAPP", "setting": "IAPP [1]; [7]", "value": "+ (20-39% binding=(+))"}]}, {"smiles": "O=S(=O)([O-])CC(O)C[N+]12CCC(CC1)CC2", "note": "(centres unmarked) [JX, 1-(3-sulfo-2-hydroxypropyl) quinuclidinium, inner salt]", "values": [{"measurement": "MS binding IAPP", "setting": "IAPP [2]", "value": "++ (40-74% binding=(++))"}]}, {"smiles": "CCCCCCCCNCC(O)CS(=O)(=O)O", "note": "(centres unmarked) [JW]", "values": [{"measurement": "MS binding IAPP", "setting": "IAPP [2]", "value": "++ (40-74% binding=(++))"}]}, {"smiles": "COc1ccc(CNCCCCS(=O)(=O)O)cc1OC", "note": "[LM]", "values": [{"measurement": "MS binding IAPP", "setting": "IAPP [2]", "value": "+++ (75-100% binding=(+++))"}]}, {"smiles": "O=S(=O)([O-])CC(O)CNCc1ccccc1.[Na+]", "note": "(centres unmarked) [JY]", "values": [{"measurement": "MS binding IAPP", "setting": "IAPP [2]", "value": "+++ (75-100% binding=(+++))"}]}, {"smiles": "O=S(=O)(O)CCCn1ccnc1", "note": "[HR]", "values": [{"measurement": "MS binding Aβ1-40", "setting": "Aβ1-40; [6]", "value": "++ (40-74% binding=(++))"}, {"measurement": "MS binding IAPP", "setting": "IAPP [1]; [7]", "value": "− (<20%=(−))"}]}, {"smiles": "CN(C)CC(O)CS(=O)(=O)[O-].[Na+]", "note": "(centres unmarked) [JT, 3-(dimethylamino)-2-hydroxy-1-propane sulfonic acid, sodium salt]", "values": [{"measurement": "MS binding IAPP", "setting": "IAPP [2]", "value": "+ (20-39% binding=(+))"}]}, {"smiles": "O=S(=O)(O)CCCn1cccc1", "note": "[HV]", "values": [{"measurement": "MS binding Aβ1-40", "setting": "Aβ1-40; [6]", "value": "++ (40-74% binding=(++))"}, {"measurement": "MS binding IAPP", "setting": "IAPP [1]; [7]", "value": "+ (20-39% binding=(+))"}]}, {"smiles": "CN(C)CCCCS(=O)(=O)O", "note": "[LH, 4-Dimethylamino-1-butanesulfonic acid]", "values": [{"measurement": "MS binding IAPP", "setting": "IAPP [2]", "value": "+ (20-39% binding=(+))"}]}, {"smiles": "CC(CCNC12CC3CC(CC(C3)C1)C2)S(=O)(=O)O", "note": "(centres unmarked) [JH, 4-(adamantyl)amino-2-butanesulfonic acid]", "values": [{"measurement": "MS binding Aβ1-40", "setting": "Aβ1-40; [3]", "value": "++ (40-59% binding=(++))"}, {"measurement": "MS binding IAPP", "setting": "IAPP [1]; [4]", "value": "+++ (60-100% binding=(+++))"}]}]}
